According to ChEMBL document CHEMBL1147915, “Carbonic anhydrase inhibitors. Inhibition of isoforms I, II, IV, VA, VII, IX, and XIV with sulfonamides incorporating fructopyranose-thioureido tails” (Bioorg Med Chem Lett, 2007):

Assays:
Carbonic anhydrase 9 = Carbonic anhydrase 9 (Homo sapiens, UniProt Q16790)
Description: Inhibition of human recombinant CA9 after 15 mins by CO2 hydration stopped flow assay

Mus musculus [1] = experiment: Anticonvulsant activity in OF1 mouse at 50 mg/kg, ip after 2 hrs by MES test; assay type: functional; conditions: route intraperitoneal
Mus musculus [2] = experiment: Anticonvulsant activity in OF1 mouse at 30 mg/kg, ip after 2 hrs by MES test; assay type: functional; conditions: route intraperitoneal

For `CC1(C)O[C@@H]2[C@@H](CO[C@@]3(CNC(=S)Nc4ccc(S(N)(=O)=O)cc4)OC(C)(C)O[C@@H]23)O1`, the Ki (Carbonic anhydrase 9) was 82 nM and the Activity (Mus musculus [1]) was 0%.

Work on `CC1(C)O[C@@H]2[C@@H](CO[C@@]3(CNC(=S)Nc4cccc(S(N)(=O)=O)c4)OC(C)(C)O[C@@H]23)O1` yielded a Ki (Carbonic anhydrase 9) of 4500 nM and an Activity (Mus musculus [1]) of 0%.

For `CC1(C)O[C@@H]2[C@@H](CO[C@@]3(CNC(=S)Nc4ccc(S(N)(=O)=O)cc4Cl)OC(C)(C)O[C@@H]23)O1`, the Ki (Carbonic anhydrase 9) was 134 nM and the Activity (Mus musculus [1]) was 0%.

`CC1(C)O[C@@H]2[C@@H](CO[C@@]3(CNC(=S)Nc4ccc(S(N)(=O)=O)cc4F)OC(C)(C)O[C@@H]23)O1` was tested, and the Ki (Carbonic anhydrase 9) was 110 nM and the Activity (Mus musculus [1]) was 87.5%.

Compound `CC1(C)O[C@@H]2[C@@H](CO[C@@]3(CNC(=S)NCCc4ccc(S(N)(=O)=O)cc4)OC(C)(C)O[C@@H]23)O1` has an Activity (Mus musculus [1]) of 0%.

Compound `CC1(C)O[C@@H]2[C@@H](CO[C@@]3(CNC(=S)Nc4ccc(S(=O)(=O)NCc5ccc(S(N)(=O)=O)cc5)cc4F)OC(C)(C)O[C@@H]23)O1` has a Ki (Carbonic anhydrase 9) of 11 nM and an Activity (Mus musculus [1]) of 20%.

`CC1(C)O[C@@H]2[C@@H](CO[C@@]3(CNC(=S)Nc4ccc(S(=O)(=O)Nc5nnc(S(N)(=O)=O)s5)cc4F)OC(C)(C)O[C@@H]23)O1` showed a Ki (Carbonic anhydrase 9) of 76 nM and an Activity (Mus musculus [1]) of 0%.

`NC(=O)N1c2ccccc2C=Cc2ccccc21` [CARBAMAZEPINE] was tested, and the Activity (Mus musculus [2]) was 100%.

`O=C1NC(=O)C(c2ccccc2)(c2ccccc2)N1` [PHENYTOIN] gave an Activity (Mus musculus [2]) of 100%.

`CC1(C)O[C@@H]2[C@@H](CO[C@@]3(COS(N)(=O)=O)OC(C)(C)O[C@@H]23)O1` [TOPIRAMATE] was tested, and the Activity (Mus musculus [1]) was 68.75%.
